Reference: US9283235B2, “Intermittent lowering of cortisol as treatment of clinical conditions associated with abnormal concentrations of cortisol in animals” (Stegram Pharmaceuticals Limited, priority 2001, dated 2016)
Entries after “also recorded” stand apart in the source; their conditions may differ.

Tests used:
[1] = test system: horses with equine Cushing's disease; experiment: Clinical signs in horses with equine Cushing's disease, trilostane once daily in feed for 30 days; assay type: in vivo, horse
Description: The ability of intermittent administration of Trilostane to block adrenal steroidogenesis was assessed in twenty horses (mean age 21, SD 5.7 years) with equine Cushing's disease. The combined dexamethasone suppression thyrotropin releasing hormone (TRH) stimulation test (17 horses) or TRH stimulation test (3 horses) was used as a standard test of function of the hypothalamic-pituitary-adrenal axis. Serum samples for cortisol analysis were collected via indwelling catheter at 4-hourly intervals over 24 hours on each of the test periods. These were before treatment then at 210 minutes (30 min after I mg i.v. TRH) and 22 hours after […] dexamethasone i.m. Affected horses were treated with 0.4 to 1 mg/kg, (mean 0.5 mg/kg) trilostane administered once daily in feed for a period of 30 days. After 30 days endocrine testing was repeated. Serum cortisol before and after treatment was compared by paired t-test.

dogs with Alopecia X = experiment: Treatment of Alopecia X in dogs, hair re-growth; assay type: in vivo, dog; conditions: once-daily dose
Text: To study the effect of trilostane in the treatment of Alopecia X a total of 11 dogs with the condition were examined along with 10 unaffected dogs. The hormonal abnormalities were identified, with increases in cortisol and 17 OHP concentrations. Trilostane in a once-daily dose was given to the affected animals. Five of the six Pomeranians (83%) and all four of the Miniature poodles have responded to trilostane, showing hair re-growth in the affected areas.

[2] = test system: ACTH stimulation of the adrenal gland; experiment: ACTH stimulation test, serum cortisol in dogs; assay type: in vivo, dog
Description: Dogs were entered into the study sequentially over a period of 2-3.5 years Owners were informed about the experimental nature of the treatment and signed a consent form. The ACTH stimulation test was performed by collection of serum samples before and one hour after intravenous injection of ACTH (Synacthen, Alliance) at a dose of 0.125 mg for dogs weighing less than 15 kg, and 0.25 mg for dogs weighing greater than 15 kg. Cortisol concentration was measured by radioimmunoassay previously validated for dogs Blood for endogenous ACTH was collected into a cooled EDTA tube in ice, centrifuged immediately and the frozen at −20° C. Abdominal ultrasound was performed by an experienced board-certified radiologist and adrenal thickness was assessed as a single measurement made perpendicular to the long axis and was defined as the greatest dorso-ventral dimension.
Dogs with Cushing's disease were given an ACTH stimulation test at 12, 35 and 81 days (average) during a course of treatment with a single daily dose of trilostane of 5-20 mg/kg. […] Thus, trilostane has blunted ACTH stimulation of the adrenal gland.

## CC12CCC3C(CC[C@@]45O[C@@H]4C(=O)C(C#N)CC35C)C1CC[C@@H]2O (stereo partly drawn) [Trilostane, 2α-cyano-4α,5α-epoxyandrostan-17β-ol-3-one]
[1]; lethargy present in 19 horses
  Lethargy / demeanour after therapy: improvement in demeanour was evident in all horses
[1]; present in 11 horses
  Polyuria and/or polydipsia after treatment: reduced ill all
[1]; present in 17 horses
  Recurrent, chronic or persistent laminitis improved or showed no recurrence: 14 cases
[1]; three horses, rotation and sinking on radiographs
  Severe, acute laminitis on presentation, response: did not respond to trilostane
[1]; trilostane once-per-day
  Overall clinical response: a clinical response was observed; also recorded: improvement in most of the clinical signs in all horses
Dogs with Alopecia X
  Miniature poodles responding, hair re-growth in the affected areas: all four
Dogs with Alopecia X; five of six
  Pomeranians responding, hair re-growth in the affected areas: 83%
[2]; 12 days of Trilostane treatment
  % pre Trilostane Cortisol: −29.7%
[2]; 12 days of Trilostane treatment (5-10 mg/k), 53 dogs
  Post ACTH stimulation test serum Cortisol: 249 nmol/L
[2]; 35 days of Trilostane treatment
  % pre Trilostane Cortisol: −30.0%
[2]; 35 days of Trilostane treatment (5-10 mg/k), 59 dogs
  Post ACTH stimulation test serum Cortisol: 231 nmol/L
[2]; 81 days of Trilostane treatment
  % pre Trilostane Cortisol: −27.3%
[2]; 81 days of Trilostane treatment (5-10 mg/k), 48 dogs
  Post ACTH stimulation test serum Cortisol: 214 nmol/L
[2]; first re-examination, all dogs
  Serum cortisol post ACTH as % of the original value: less than 61%
[2]; single daily dose 5-20 mg/kg, vs non-treatment controls
  Cortisol response to ACTH, in words: markedly reduced
